Reference: ChEMBL document CHEMBL1201861, “Genomics of Drug Sensitity in Cancer screening data, Wellcome Trust Sanger Institute”
pIC50: −log10 of the molar value.

Key:
Assay in all cases: cells
Details in all cases: Homo sapiens
Calu-6 = format: functional, cell-based;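 further: growth of human Calu-6 cells, read out by a cell viability assay, IC50 marking inhibition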
Description: SANGER: Inhibition of human Calu-6 cell growth in a cell viability assay.

DMS-79 = format: functional, cell-based;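 further: growth inhibition measured with a cell viability assay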
Description: SANGER: Inhibition of human DMS-79 cell growth in a cell viability assay.

EC-GI-10 = format: functional, cell-based
Description: SANGER: Inhibition of human EC-GI-10 cell growth in a cell viability assay.

ES1 = format: functional, cell-based;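 further: growth inhibition of ES1 cells, read out with a cell viability assay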
Description: SANGER: Inhibition of human ES1 cell growth in a cell viability assay.

ES5 = format: functional, cell-based;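 further: growth inhibition of human ES5 cells, read out by a cell viability assay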
Description: SANGER: Inhibition of human ES5 cell growth in a cell viability assay.

ES8 = format: functional, cell-based;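 further: growth inhibition of human ES8 cells, read out with a cell viability assay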
Description: SANGER: Inhibition of human ES8 cell growth in a cell viability assay.

ETK-1 = format: functional, cell-based;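 further: growth inhibition of human ETK-1 cells, read out with a cell viability assay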
Description: SANGER: Inhibition of human ETK-1 cell growth in a cell viability assay.

EOL1 = format: functional, cell-based;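 further: growth inhibition of EoL-1 cells, read out by a cell viability assay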
Description: SANGER: Inhibition of human EoL-1-cell cell growth in a cell viability assay.

GB-1 = format: functional, cell-based;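 further: growth of GB-1 cells judged by a viability assay, IC50 marks the concentration inhibiting growth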
Description: SANGER: Inhibition of human GB-1 cell growth in a cell viability assay.

GI-1 = format: functional, cell-based
Description: SANGER: Inhibition of human GI-1 cell growth in a cell viability assay.

GOTO = format: functional, cell-based;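 further: growth inhibition of GOTO cells, read out by a cell viability assay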
Description: SANGER: Inhibition of human GOTO cell growth in a cell viability assay.

GR-ST = format: functional, cell-based
Description: SANGER: Inhibition of human GR-ST cell growth in a cell viability assay.

HCC2218 = format: functional, cell-based;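 further: cell viability assay read-out, with IC50 given as the concentration that inhibits growth of the cell line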
Description: SANGER: Inhibition of human HCC2218 cell growth in a cell viability assay.

HDLM-2 = format: functional, cell-based;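 further: cell viability assay measuring suppression of HDLM-2 proliferation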
Description: SANGER: Inhibition of human HDLM-2 cell growth in a cell viability assay.

HL-60 = format: functional, cell-based;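 further: growth inhibition of human HL-60 cells, read out with a cell viability assay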
Description: SANGER: Inhibition of human HL-60 cell growth in a cell viability assay.

IST-SL1 = format: functional, cell-based;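 further: growth inhibition of human IST-SL1 cells, read out with a cell viability assay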
Description: SANGER: Inhibition of human IST-SL1 cell growth in a cell viability assay.

J-RT3-T3-5 = format: functional, cell-based;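 further: cell viability assay measuring growth inhibition of human J-RT3-T3-5 cells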
Description: SANGER: Inhibition of human J-RT3-T3-5 cell growth in a cell viability assay.

JAR = format: functional, cell-based;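 further: growth inhibition of human JAR cells determined with a cell viability assay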
Description: SANGER: Inhibition of human JAR cell growth in a cell viability assay.

JVM-2 = format: functional, cell-based;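 further: growth inhibition of JVM-2 cells determined by a cell viability assay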
Description: SANGER: Inhibition of human JVM-2 cell growth in a cell viability assay.

KARPAS-299 = format: functional, cell-based
Description: SANGER: Inhibition of human KARPAS-299 cell growth in a cell viability assay.

KG-1 = format: functional, cell-based;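 further: growth inhibition of KG-1 cells, read out by a cell viability assay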
Description: SANGER: Inhibition of human KG-1 cell growth in a cell viability assay.

KMOE-2 = format: functional, cell-based;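 further: growth inhibition of human KMOE-2 cells, read out with a cell viability assay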
Description: SANGER: Inhibition of human KMOE-2 cell growth in a cell viability assay.

KNS-42 = format: functional, cell-based;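 further: growth inhibition of KNS-42 cells, read out with a cell viability assay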
Description: SANGER: Inhibition of human KNS-42 cell growth in a cell viability assay.

KS-1 = format: functional, cell-based;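 further: growth inhibition of KS-1 cells, read out with a cell viability assay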
Description: SANGER: Inhibition of human KS-1 cell growth in a cell viability assay.

KU812 cell line = format: functional, cell-based;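 further: growth inhibition of KU812 cells, read out with a cell viability assay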
Description: SANGER: Inhibition of human KU812 cell growth in a cell viability assay.

KY821 = format: functional, cell-based;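 further: growth inhibition of human KY821 cells, read out by a cell viability assay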
Description: SANGER: Inhibition of human KY821 cell growth in a cell viability assay.

LAN-6 = format: functional, cell-based;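 further: growth inhibition of LAN-6 cells, determined with a cell viability assay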
Description: SANGER: Inhibition of human LAN-6 cell growth in a cell viability assay.

LB1047-RCC = format: functional, cell-based;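 further: inhibition of cell growth, determined with a cell viability assay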
Description: SANGER: Inhibition of human LB1047-RCC cell growth in a cell viability assay.

LB831-BLC = format: functional, cell-based;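 further: growth inhibition of LB831-BLC cells, read out with a cell viability assay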
Description: SANGER: Inhibition of human LB831-BLC cell growth in a cell viability assay.

LOX IMVI = format: functional, cell-based
Description: SANGER: Inhibition of human LOXIMVI cell growth in a cell viability assay.

LS-513 = format: functional, cell-based
Description: SANGER: Inhibition of human LS-513 cell growth in a cell viability assay.

LU-134-A = format: functional, cell-based
Description: SANGER: Inhibition of human LU-134-A cell growth in a cell viability assay.

MC116 = format: functional, cell-based;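 further: growth inhibition of MC116 cells, read out with a cell viability assay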
Description: SANGER: Inhibition of human MC116 cell growth in a cell viability assay.

MHH-PREB-1 = format: functional, cell-based;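 further: cell viability assay measuring inhibition of proliferation of human MHH-PREB-1 cells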
Description: SANGER: Inhibition of human MHH-PREB-1 cell growth in a cell viability assay.

MN-60 = format: functional, cell-based;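 further: growth inhibition of the MN-60 cell line, determined with a cell viability assay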
Description: SANGER: Inhibition of human MN-60 cell growth in a cell viability assay.

MOLT-16 = format: functional, cell-based;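 further: growth inhibition of human MOLT-16 cells, read out with a cell viability assay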
Description: SANGER: Inhibition of human MOLT-16 cell growth in a cell viability assay.

MZ1-PC = format: functional, cell-based;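 further: cell viability assay measuring growth inhibition of human MZ1-PC cells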
Description: SANGER: Inhibition of human MZ1-PC cell growth in a cell viability assay.

NCI-H1155 = format: functional, cell-based;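 further: cell growth inhibition measured by a viability assay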
Description: SANGER: Inhibition of human NCI-H1155 cell growth in a cell viability assay.

NCI-H1355 = format: functional, cell-based;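 further: growth inhibition of human NCI-H1355 cells, read out by a cell viability assay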
Description: SANGER: Inhibition of human NCI-H1355 cell growth in a cell viability assay.

NCI-H1648 = format: functional, cell-based;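 further: cell viability assay measuring inhibition of NCI-H1648 cell growth, from the Sanger screening data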
Description: SANGER: Inhibition of human NCI-H1648 cell growth in a cell viability assay.

NCI-H1770 = format: functional, cell-based;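 further: growth inhibition of NCI-H1770 cells determined with a viability readout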
Description: SANGER: Inhibition of human NCI-H1770 cell growth in a cell viability assay.

NCI-H1838 = format: functional, cell-based;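 further: growth inhibition of NCI-H1838 cells, determined with a cell viability readout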
Description: SANGER: Inhibition of human NCI-H1838 cell growth in a cell viability assay.

NCI-H69 = format: functional, cell-based;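 further: growth inhibition of the cell line, read out with a cell viability assay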
Description: SANGER: Inhibition of human NCI-H69 cell growth in a cell viability assay.

SNU1 = format: functional, cell-based;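 further: growth inhibition of human NCI-SNU-1 cells, measured with a cell viability assay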
Description: SANGER: Inhibition of human NCI-SNU-1 cell growth in a cell viability assay.

NOMO-1 = format: functional, cell-based;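 further: growth inhibition of human NOMO-1 cells measured by a cell viability assay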
Description: SANGER: Inhibition of human NOMO-1 cell growth in a cell viability assay.

NTERA-2-cl-D1 = format: functional, cell-based;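 further: inhibition of cell growth, measured with a cell viability assay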
Description: SANGER: Inhibition of human NTERA-S-cl-D1 cell growth in a cell viability assay.

OCUB-M = format: functional, cell-based;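 further: growth inhibition of the cancer cell line, read out through a cell viability assay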
Description: SANGER: Inhibition of human OCUB-M cell growth in a cell viability assay.

OMC-1 = format: functional, cell-based;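 further: growth inhibition of the OMC-1 cell line, measured by a cell viability assay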
Description: SANGER: Inhibition of human OMC-1 cell growth in a cell viability assay.

RPMI-8226 = format: functional, cell-based
Description: SANGER: Inhibition of human RPMI-8226 cell growth in a cell viability assay.

RXF 393 = format: functional, cell-based;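 further: growth inhibition of human RXF 393 cells, read out with a cell viability assay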
Description: SANGER: Inhibition of human RXF393 cell growth in a cell viability assay.

Ramos-2G6-4C10 = format: functional, cell-based;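 further: growth inhibition of the cell line, measured by a cell viability read-out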
Description: SANGER: Inhibition of human Ramos-2G6-4C10 cell growth in a cell viability assay.

SBC-1 = format: functional, cell-based;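 further: cell viability assay measuring growth inhibition of the SBC-1 cell line, IC50 being the concentration that halves growth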
Description: SANGER: Inhibition of human SBC-1 cell growth in a cell viability assay.

SCH = format: functional, cell-based;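 further: growth inhibition of human SCH cells, read out in a cell viability assay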
Description: SANGER: Inhibition of human SCH cell growth in a cell viability assay.

SH-4 = format: functional, cell-based;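 further: growth inhibition of SH-4 cells, read out with a cell viability assay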
Description: SANGER: Inhibition of human SH-4 cell growth in a cell viability assay.

SHP77 = format: functional, cell-based, SHP-77;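 further: growth inhibition of human SHP-77 cells measured by a cell viability assay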
Description: SANGER: Inhibition of human SHP-77 cell growth in a cell viability assay.

SK-MEL-2 = format: functional, cell-based
Description: SANGER: Inhibition of human SK-MEL-2 cell growth in a cell viability assay.

SK-PN-DW = format: functional, cell-based
Description: SANGER: Inhibition of human SK-PN-DW cell growth in a cell viability assay.

SW 954 = format: functional, cell-based
Description: SANGER: Inhibition of human SW954 cell growth in a cell viability assay.

697 = format: functional, cell-based
Description: SANGER: Inhibition of human 697 cell growth in a cell viability assay.

C8166 = format: functional, cell-based
Description: SANGER: Inhibition of human C8166 cell growth in a cell viability assay.

TK-10 = format: functional, cell-based
Description: SANGER: Inhibition of human TK10 cell growth in a cell viability assay.

no-11 = format: functional, cell-based
Description: SANGER: Inhibition of human no-11 cell growth in a cell viability assay.

GAK = format: functional, cell-based
Description: SANGER: Inhibition of human GAK cell growth in a cell viability assay.

SNU-C2B = format: functional, cell-based
Description: SANGER: Inhibition of human SNU-C2B cell growth in a cell viability assay.

A704 = format: functional, cell-based
Description: SANGER: Inhibition of human A704 cell growth in a cell viability assay.

With Cc1ccc(NC(=O)c2cccc(C(C)(C)C#N)c2)cc1Nc1ccc2ncn(C)c(=O)c2c1 the pIC50 (Calu-6) was 7.29, the pIC50 (DMS-79) was less than 5.40 and the pIC50 (EC-GI-10) was less than 5.40. For the same molecule, the pIC50 (ES1) was less than 5.40, the pIC50 (ES5) was less than 5.40 and the pIC50 (ES8) was less than 5.40. It also gave a pIC50 (ETK-1) of less than 5.40, a pIC50 (EOL1) of less than 5.40 and a pIC50 (GB-1) of less than 5.40. It also gave a pIC50 (GI-1) of less than 5.40, a pIC50 (GOTO) of less than 5.40 and a pIC50 (GR-ST) of less than 5.40. The pIC50 (HCC2218) was less than 5.40, the pIC50 (HDLM-2) was less than 5.40 and the pIC50 (HL-60) was 6.81. The pIC50 (IST-SL1) was less than 5.40, the pIC50 (J-RT3-T3-5) was less than 5.40 and the pIC50 (JAR) was less than 5.40. It also gave a pIC50 (JVM-2) of less than 5.40, a pIC50 (KARPAS-299) of less than 5.40 and a pIC50 (KG-1) of 5.42. It also gave a pIC50 (KMOE-2) of 6.94, a pIC50 (KNS-42) of less than 5.40 and a pIC50 (KS-1) of 6.41. It also gave a pIC50 (KU812 cell line) of less than 5.40, a pIC50 (KY821) of less than 5.40 and a pIC50 (LAN-6) of 6.17. It also gave a pIC50 (LB1047-RCC) of less than 5.40, a pIC50 (LB831-BLC) of less than 5.40 and a pIC50 (LOX IMVI) of less than 5.40. The pIC50 (LS-513) was 7.13, the pIC50 (LU-134-A) was less than 5.40 and the pIC50 (MC116) was less than 5.40. It also gave a pIC50 (MHH-PREB-1) of less than 5.40, a pIC50 (MN-60) of less than 5.40 and a pIC50 (MOLT-16) of less than 5.40. It also gave a pIC50 (MZ1-PC) of 6.55, a pIC50 (NCI-H1155) of less than 5.40 and a pIC50 (NCI-H1355) of less than 5.40. For the same molecule, the pIC50 (NCI-H1648) was 6.17, the pIC50 (NCI-H1770) was less than 5.40 and the pIC50 (NCI-H1838) was less than 5.40. The pIC50 (NCI-H69) was less than 5.40, the pIC50 (SNU1) was 6.35 and the pIC50 (NOMO-1) was 5.92. For the same molecule, the pIC50 (NTERA-2-cl-D1) was less than 5.40, the pIC50 (OCUB-M) was less than 5.40 and the pIC50 (OMC-1) was less than 5.40. It also gave a pIC50 (RPMI-8226) of 5.61, a pIC50 (RXF 393) of less than 5.40 and a pIC50 (Ramos-2G6-4C10) of less than 5.40. For the same molecule, the pIC50 (SBC-1) was less than 5.40, the pIC50 (SCH) was less than 5.40 and the pIC50 (SH-4) was greater than 7.81. The pIC50 (SHP77) was less than 5.40, the pIC50 (SK-MEL-2) was 5.49 and the pIC50 (SK-PN-DW) was less than 5.40. The pIC50 (SW 954) was less than 5.40, the pIC50 697 was 6.44 and the pIC50 (C8166) was less than 5.40. The pIC50 (TK-10) was less than 5.40 and the pIC50 (no-11) was less than 5.40.
Work on NC(=O)c1ncn([C@@H]2O[C@H](COP(=O)(O)O)[C@@H](O)[C@H]2O)c1N yielded a pIC50 (Calu-6) of 3.14, a pIC50 (DMS-79) of less than 2.70 and a pIC50 (EC-GI-10) of less than 2.70. For the same molecule, the pIC50 (ES1) was less than 2.70, the pIC50 (ES5) was less than 2.70 and the pIC50 (ES8) was less than 2.70. For the same molecule, the pIC50 (ETK-1) was 3.27, the pIC50 (GAK) was less than 2.70 and the pIC50 (GB-1) was less than 2.70. For the same molecule, the pIC50 (GOTO) was less than 2.70, the pIC50 (GR-ST) was 3.37 and the pIC50 (HDLM-2) was 2.75. It also gave a pIC50 (HL-60) of 3.43, a pIC50 (IST-SL1) of less than 2.70 and a pIC50 (J-RT3-T3-5) of less than 2.70. It also gave a pIC50 (JAR) of 3.46, a pIC50 (JVM-2) of less than 2.70 and a pIC50 (KARPAS-299) of less than 2.70. The pIC50 (KG-1) was 3.52, the pIC50 (KMOE-2) was 3.38 and the pIC50 (KNS-42) was less than 2.70. The pIC50 (KS-1) was 2.90, the pIC50 (LB1047-RCC) was less than 2.70 and the pIC50 (LB831-BLC) was less than 2.70. The pIC50 (LOX IMVI) was 3.03, the pIC50 (LS-513) was less than 2.70 and the pIC50 (LU-134-A) was 3.02. It also gave a pIC50 (MC116) of 2.89, a pIC50 (MHH-PREB-1) of 3.38 and a pIC50 (MN-60) of less than 2.70. It also gave a pIC50 (MOLT-16) of less than 2.70, a pIC50 (MZ1-PC) of less than 2.70 and a pIC50 (NCI-H1155) of 3.10. The pIC50 (NCI-H1355) was less than 2.70, the pIC50 (NCI-H1648) was less than 2.70 and the pIC50 (NCI-H1770) was 3.31. It also gave a pIC50 (NCI-H1838) of less than 2.70, a pIC50 (SNU1) of 3.33 and a pIC50 (NOMO-1) of 3.07. The pIC50 (NTERA-2-cl-D1) was less than 2.70, the pIC50 (OCUB-M) was 2.92 and the pIC50 (OMC-1) was less than 2.70. The pIC50 (RPMI-8226) was 3.30, the pIC50 (RXF 393) was 3.15 and the pIC50 (Ramos-2G6-4C10) was 3.62. The pIC50 (SBC-1) was 2.85, the pIC50 (SCH) was less than 2.70 and the pIC50 (SH-4) was less than 2.70. For the same molecule, the pIC50 (SHP77) was less than 2.70, the pIC50 (SK-MEL-2) was less than 2.70 and the pIC50 (SK-PN-DW) was 3.13. It also gave a pIC50 (SNU-C2B) of less than 2.70, a pIC50 (SW 954) of 3.38 and a pIC50 697 of 3.32. For the same molecule, the pIC50 (A704) was less than 2.70, the pIC50 (C8166) was 2.93 and the pIC50 (TK-10) was less than 2.70. For the same molecule, the pIC50 (no-11) was less than 2.70.
